Laboratory results as given in patent US8481526B2, “Fluoroquinolone carboxylic acid molecular crystals” (Bausch & Lomb Incorporated, priority 2009, dated 2013).
Where a name gives a salt, the structure may show the parent alone.

Legend:
Format in all cases: physicochemical
[1] = Moisture sorption analysis (VTI moisture sorption balance); conditions: 25° C., 10% to 90% RH; listed as Besifloxacin HCl
Method: Moisture uptake and loss was monitored as a function of relative humidity using a VTI, moisture sorption balance. A 30-40 mg sample was loaded into a tared glass sample holder. The initial weight of the sample was accurately recorded. The sample was then dried under a steady stream of nitrogen for 2 hours at 40° C. After initial drying, the sample mass was equilibrated with dry nitrogen at 25° C. and the sample was exposed to progressive stepwise increases in humidity under controlled conditions. The sample was equilibrated for two hours at each new relative humidity. The moisture sorption behavior was monitored at 10% to 90% RH in 10% RH intervals and desorption was monitored from 90% to 10% RH. The % moisture gain/loss was recorded vs. the % RH.

[2] = XRPD of excess solids isolated from equilibrated solubility samples (form conversion); conditions: for Form conversion in aqueous media: pH>4
Method: Approximately 20-100 mg of powder was loaded onto a low background sample holder. Samples were analyzed on a Rigaku Miniflex (scanning configuration) and scanned from 5-60°, 2-theta at a rate of 1°2θ/minute with a sampling rate of 0.02 seconds. Patterns were analyzed using Jade software version 7.5, provided by Materials Data Inc.
Excess solids were isolated from equilibrated samples and analyzed by XRPD. […] As discussed below (XRPD section), this phase was identified as the crystalline besifloxacin free base.

[3] = Equilibrium solubility in various solvents (HPLC); conditions: 22° C. ± 2° C.; for solubility: solubility of free base
[4] = pH-dependence of solubility in distilled water (HPLC); conditions: distilled water, aqueous buffer, thermodynamic from solid, water, 22° C. ± 2° C., reported as free base concentration, read-out: Solubility
Method: (§1) A reversed phase gradient HPLC method was used for the analysis of besifloxacin solubility samples. The conditions are listed below:
(§2) The solubility of besifloxacin HCl, lot 050956330, was determined in distilled water as a function of pH by adjusting the pH with 1 N NaOH. Suspensions of the drug substance (about 50-150 mg in 10 mL distilled water) were equilibrated for 72-96 hours using a Burrell shaker. Laboratory temperature was 22±2° C. The pH of the suspensions was measured in the presence of excess solid prior to sampling. The samples were centrifuged in an Enprotech ISS-I13 centrifuge at 10,000 RPM for 15 minutes or filtered through 0.45[…] or PVDF filters. When samples were filtered, a volume of filtrate was discarded to allow saturation of filters. The supernatant or the filtrate was diluted as needed using the HPLC diluent prior to analysis. Sample concentration was monitored at varying time intervals to ensure complete equilibration. Also, sample concentration was reported as besifloxacin free base concentration rather than HCl salt.

[5] = Equilibrium solubility in various solvents (HPLC); conditions: Water, 22° C. ± 2° C.
Method: as §1
The solubility of besifloxacin HCl was evaluated in several organic solvents. An excess of drug substance was equilibrated with 10 mL of each solvent for 24-48 hours at room temperature (24±3° C.) using either a small magnetic stirrer or a Burrell Wrist Action shaker. Samples were inspected visually, and if needed, more drug substance was added until excess solid persisted after stirring. The samples were then filtered through 0.45 μm Nylon or PVDF filters or centrifuged at 10,000 RPM for 15 minutes. The filtrate or the supernatant was diluted as needed using the HPLC diluent and analyzed by HPLC. When solubility was greater than 100 mg/mL, no attempt was made to determine the equilibrium solubility and the compound was described as “freely soluble” as per the USP definition.
as §2

In the case of N[C@@H]1CCCCN(c2c(F)cc3c(=O)c(C(=O)O)cn(C4CC4)c3c2Cl)C1 [besifloxacin HCl salt], the “Hygroscopicity / moisture sorption behaviour” value [1] is reported as “not hygroscopic”, the “Form conversion in aqueous media” value [2] is reported as “dissolve and precipitate in a different crystalline form” and the “Form conversion in aqueous media” value ([2]; listed as besifloxacin HCl) is reported as “convert in aqueous media (pH>4) to a new crystalline phase”. The “Form conversion of excess solid” value ([2]; aqueous pH solubility samples, pHs>3.5-4.0) was “converted to a different crystalline phase”, the “Form conversion of excess solid” value ([2]; equilibrated in organic solvents) was “no form conversions were observed” and the USP def ([3]; Acetonitrile) was “Insoluble”. The USP def ([3]; Acetonitrile, listed as Besifloxacin HCL salt) was “insoluble”, the USP def ([3]; Acetonitrile, listed as Besifloxacin HCl salt) was “insoluble” and the solubility ([3]; Acetonitrile) was 12 µg/mL. For the same compound, the USP def ([3]; Ethanol) was “slightly soluble”, the USP def ([3]; Ethanol, listed as Besifloxacin HCL salt) was “slightly soluble” and the USP def ([3]; Ethanol, listed as Besifloxacin HCl salt) was “slightly soluble”. The solubility ([3]; Ethanol) was 1122 µg/mL, the USP def ([3]; Isopropanol) was “Insoluble” and the USP def ([3]; Isopropanol, listed as Besifloxacin HCL salt) was “insoluble”. For the same compound, the USP def ([3]; Isopropanol, listed as Besifloxacin HCl salt) was “insoluble”, the solubility ([3]; Isopropanol) was 89 µg/mL and the USP def ([3]; Methanol) was “slightly soluble”. For the same compound, the USP def ([3]; Methanol, listed as Besifloxacin HCL salt) was “slightly soluble”, the USP def ([3]; Methanol, listed as Besifloxacin HCl salt) was “slightly soluble” and the solubility ([3]; Methanol) was 9898 µg/mL. For the same compound, the USP def ([3]; Water) was “sparingly”, the solubility ([4]; pH 3.54) was 10600 µg/mL and the solubility ([4]; pH 3.58) was 10200 µg/mL. For the same compound, the solubility ([4]; pH 3.72) was 10300 µg/mL, the solubility ([4]; pH 3.95) was 4180 µg/mL and the solubility ([4]; pH 4.58) was 710 µg/mL. It also gave a solubility ([4]; pH 4.87) of 590 µg/mL, a solubility ([4]; pH 5.15) of 240 µg/mL and a solubility ([4]; pH 5.17) of 270 µg/mL. The solubility ([4]; pH 5.43) was 220 µg/mL, the solubility ([4]; pH 5.95) was 120 µg/mL and the solubility ([4]; pH 6.31) was 100 µg/mL. It also gave a solubility ([4]; pH 6.45) of 100 µg/mL, a solubility ([4]; pH 6.49) of 80 µg/mL and a solubility ([4]; pH 6.72) of 80 µg/mL. For the same compound, the solubility ([4]; pH 8.14) was 80 µg/mL, the solubility ([4]; pH 9.11) was 80 µg/mL and the solubility ([4]; pH 9.59) was 100 µg/mL. The solubility ([4]; pH 9.63) was 100 µg/mL, the solubility ([4]; pH 10.37) was 270 µg/mL and the solubility ([4]; pH 10.85) was 850 µg/mL. For the same compound, the USP def ([5]; listed as Besifloxacin HCL salt) was “sparingly soluble”, the USP def ([5]; listed as Besifloxacin HCl salt) was “sparingly soluble” and the solubility ([5]; saturated solution pH 3.6 (HCl salt), 8.1 (free base), solubility of free base) was 10635 µg/mL.
